From ChEMBL document CHEMBL1201862, “PubChem BioAssay data set” (2004)
Several values for one entry are separate records, joined by “and”; a condition that tells them apart may be missing. Equal values may be shown once.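 Briefly, cells in 96-well plates were exposed to five compound concentrations for 48 h, and endpoints were estimated by linear interpolation. GI50 = concentration required for 50% inhibition of growth.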 Activity calls are given as the source filed them. Cut-off read from the data, not from the text of the source: active = GI50 up to about 1.1 µM and inactive = higher.

What was measured:
Test in all cases: NCI anticancer screen, dose series, 48 h
[1] = tested on: 786-0
[2] = tested on: A549
[3] = tested on: ACHN
[4] = tested on: COLO 205
[5] = tested on: DLD-1
[6] = tested on: DMS-114
[7] = tested on: DMS-273
[8] = tested on: DU-145
[9] = tested on: EKVX
[10] = tested on: HCC 2998
[11] = tested on: HOP-18
[12] = tested on: HOP-92
[13] = tested on: IGROV-1
[14] = tested on: KM-20L2
[15] = tested on: LXFL 529
[16] = tested on: M19-MEL
[17] = tested on: MDA-N
[18] = tested on: MOLT-4
[19] = tested on: NCI-H460
[20] = tested on: OVCAR-3
[21] = tested on: OVCAR-5
[22] = tested on: OVCAR-8
[23] = tested on: RXF 393
[24] = tested on: SK-MEL-2
[25] = tested on: SK-MEL-5
[26] = tested on: SNB-19
[27] = tested on: SNB-75
[28] = tested on: SNB-78
[29] = tested on: SW-620
[30] = tested on: T47D
[31] = tested on: U-251
[32] = tested on: UACC-257
[33] = tested on: XF498
[34] = tested on: A498
[35] = tested on: CAKI-1
[36] = tested on: CCRF-CEM
[37] = tested on: HCT-116
[38] = tested on: HCT-15
[39] = tested on: HL-60
[40] = tested on: HOP-62
[41] = tested on: HT-29
[42] = tested on: K562
[43] = tested on: KM12
[44] = tested on: LOX IMVI
[45] = tested on: M14
[46] = tested on: NCI-H226
[47] = tested on: NCI-H23
[48] = tested on: OVCAR-4
[49] = tested on: RPMI-8226
[50] = tested on: RXF 631
[51] = tested on: SF-268
[52] = tested on: SF-295
[53] = tested on: SF-539
[54] = tested on: SK-MEL-28
[55] = tested on: SK-OV-3
[56] = tested on: SN12C
[57] = tested on: SR
[58] = tested on: TK-10
[59] = tested on: UACC-62
[60] = tested on: UO-31

CN(C)CC1CCCC(CN(C)C)C1=O (stereo not given)
GI50 [1]: 2.32 µM (inactive) and 1.77 µM (inactive)
GI50 [2]: 24.9 µM (inactive) and 27.2 µM (inactive)
GI50 [3]: 1.33 µM (inactive) and 1.87 µM (inactive)
GI50 [4]: 1.67 µM (inactive) and 3.33 µM (inactive)
GI50 [5]: 1.12 µM (active)
GI50 [6]: 1.48 µM (inactive)
GI50 [7]: 10.9 µM (inactive)
GI50 [8]: > 10 µM (inactive) and 15.6 µM (inactive)
GI50 [9]: 5.74 µM (inactive) and 6.61 µM (inactive)
GI50 [10]: 13.9 µM (inactive) and 19.3 µM (inactive)
GI50 [11]: 1.83 µM (inactive)
GI50 [12]: 1.91 µM (inactive) and 968 nM (active)
GI50 [13]: 19.3 µM (inactive) and 18.1 µM (inactive)
GI50 [14]: 5.02 µM (inactive)
GI50 [15]: 0.386 µM (active)
GI50 [16]: 3.65 µM (inactive)
GI50 [17]: 11 µM (inactive) and 12.1 µM (inactive)
GI50 [18]: 241 nM (active) and 450 nM (active)
GI50 [19]: 19.8 µM (inactive) and 17.5 µM (inactive)
GI50 [20]: 2.58 µM (inactive) and 1.95 µM (inactive)
GI50 [21]: 18.2 µM (inactive) and 18.3 µM (inactive)
GI50 [22]: 2.71 µM (inactive) and 2.98 µM (inactive)
GI50 [23]: 1.73 µM (inactive) and 1.26 µM (inactive)
GI50 [24]: 8.73 µM (inactive) and 17.2 µM (inactive)
GI50 [25]: 8.38 µM (inactive) and 16 µM (inactive)
GI50 [26]: > 45.6 µM (inactive) and 47 µM (inactive)
GI50 [27]: 16.4 µM (inactive) and 13.9 µM (inactive)
GI50 [28]: 3.5 µM (inactive)
GI50 [29]: 196 nM (active) and 271 nM (active)
GI50 [30]: 1.69 µM (inactive) and 1.24 µM (inactive)
GI50 [31]: 10.7 µM (inactive) and 17.9 µM (inactive)
GI50 [32]: 2.34 µM (inactive) and 2.11 µM (inactive)
GI50 [33]: 2.09 µM (inactive)

Cc1[nH]c2ccccc2c1C(=O)CC1(O)C(=O)Nc2ccccc21 (stereo not given)
GI50 [1]: > 100 µM (inactive)
GI50 [34]: > 100 µM (inactive)
GI50 [2]: > 100 µM (inactive)
GI50 [3]: > 100 µM (inactive)
GI50 [35]: > 100 µM (inactive)
GI50 [36]: > 100 µM (inactive)
GI50 [4]: > 100 µM (inactive)
GI50 [5]: > 100 µM (inactive)
GI50 [7]: > 100 µM (inactive)
GI50 [9]: 73.1 µM (inactive)
GI50 [10]: > 100 µM (inactive)
GI50 [37]: > 100 µM (inactive)
GI50 [38]: > 100 µM
GI50 [39]: > 100 µM (inactive)
GI50 [40]: > 100 µM (inactive)
GI50 [12]: > 100 µM (inactive)
GI50 [41]: > 100 µM (inactive)
GI50 [13]: > 100 µM (inactive)
GI50 [42]: > 100 µM (inactive)
GI50 [14]: > 100 µM (inactive)
GI50 [43]: > 100 µM (inactive)
GI50 [44]: > 100 µM (inactive)
GI50 [15]: > 100 µM (inactive)
GI50 [45]: > 100 µM (inactive)
GI50 [16]: > 100 µM (inactive)
GI50 [18]: > 100 µM (inactive)
GI50 [46]: > 100 µM (inactive)
GI50 [47]: > 100 µM (inactive)
GI50 [19]: > 100 µM (inactive)
GI50 [48]: > 100 µM (inactive)
GI50 [21]: > 100 µM (inactive)
GI50 [49]: > 100 µM (inactive)
GI50 [23]: > 100 µM (inactive)
GI50 [50]: > 100 µM (inactive)
GI50 [51]: > 100 µM (inactive)
GI50 [52]: > 100 µM (inactive)
GI50 [53]: > 100 µM (inactive)
GI50 [54]: > 100 µM (inactive)
GI50 [24]: 87.7 µM (inactive)
GI50 [25]: > 100 µM (inactive)
GI50 [55]: > 100 µM (inactive)
GI50 [56]: > 100 µM (inactive)
GI50 [26]: > 100 µM (inactive)
GI50 [27]: > 100 µM (inactive)
GI50 [28]: 61 µM (inactive)
GI50 [57]: > 100 µM (inactive)
GI50 [29]: > 100 µM (inactive)
GI50 [58]: > 100 µM (inactive)
GI50 [31]: > 100 µM (inactive)
GI50 [32]: > 100 µM (inactive)
GI50 [59]: > 100 µM (inactive)
GI50 [60]: > 100 µM (inactive)
